Experimental data taken from patent publication US10975084B2, “KDM5 inhibitors” (Merck Sharp & Dohme Corp., priority 2016, dated 2021).
pIC50: −log10 of the molar value.

Molecular target: KDM5B (Homo sapiens (Human), UniProt Q9UGL1)
Assay: KDM5B TR-FRET Enzyme Activity Assay
Type: biochemical
Conditions: LANCE TR-FRET; 5 nM full-length recombinant KDM5B; ten point titration 100000 nM to 5.08 nM
Method: KDM5B TR-FRET Enzyme Activity Assay
KDM5B enzymatic activity was determined with the LANCE (Lanthanide Chelate Excite) TR-FRET (Time-resolved fluorescence resonance energy transfer) assay. […] To each well of a white Greiner 1536 Lumitrac 1536 well-plate, 50 nL of compound (100 fold dilution in final assay volume of 5 μL) was dispensed, followed by the addition of 4 μL of 1× assay buffer (50 mM Hepes 7.3, 0.5 mM TCEP, 0.005% Brij-35, 0.02% BSA, 50 μM Na-L-Ascorbate and 2 μM AmFe(II)Sulfate) containing 5 nM of Full-length KDM5B enzyme (recombinant protein from baculovirus-transfected Sf21 cells: full-length KDM5B; MW=176.825 kDa). Following a 30 minutes compound and enzyme incubation in a humidified chamber, each reaction was initiated by the addition of 1 μL 1× assay buffer containing […] biotinylated H3K4Me3 peptide, and 500 nM α-ketoglutarate. The final reaction in each well of 5 μL consists of 5 nM KDM5B, 500 nM biotinylated-peptide, and 500 nM α-ketoglutarate. De-methylation reactions were allowed to proceed for 60 minutes. Reactions were immediately quenched by the addition of 5 uL of 2× Lance Detection Buffer (PerkinElmer) with 0.5 mM EDTA and 2 nM of Eu-anti-H3K4Me1-2 antibody, and 30 nM of Streptavidin-conjugated Dylight 650 detection reagents. After 60 minutes incubation with detection reagents, reaction plates were read on a PerkinElmer EnVision plate reader using standard TR-FRET protocol. Briefly, excitation of donor molecules (Eu-chelate-anti-H3K4Me1-2-antibody) with a laser light source at 337 nm produces energy that can be transferred to Dylight-650 acceptor molecules if this donor:acceptor pair is within close proximity. Fluorescence intensity at both 665 nm (acceptor) and 615 nm (donor) are measured and a TR-FRET ratio calculated for each well (acceptor intensity/donor intensity). IC50 values were determined by 4 parameter robust fit of TR-FRET ratio values vs. (Log 10) compound concentrations.

KDM5B, sequence (Q9UGL1 whole entry): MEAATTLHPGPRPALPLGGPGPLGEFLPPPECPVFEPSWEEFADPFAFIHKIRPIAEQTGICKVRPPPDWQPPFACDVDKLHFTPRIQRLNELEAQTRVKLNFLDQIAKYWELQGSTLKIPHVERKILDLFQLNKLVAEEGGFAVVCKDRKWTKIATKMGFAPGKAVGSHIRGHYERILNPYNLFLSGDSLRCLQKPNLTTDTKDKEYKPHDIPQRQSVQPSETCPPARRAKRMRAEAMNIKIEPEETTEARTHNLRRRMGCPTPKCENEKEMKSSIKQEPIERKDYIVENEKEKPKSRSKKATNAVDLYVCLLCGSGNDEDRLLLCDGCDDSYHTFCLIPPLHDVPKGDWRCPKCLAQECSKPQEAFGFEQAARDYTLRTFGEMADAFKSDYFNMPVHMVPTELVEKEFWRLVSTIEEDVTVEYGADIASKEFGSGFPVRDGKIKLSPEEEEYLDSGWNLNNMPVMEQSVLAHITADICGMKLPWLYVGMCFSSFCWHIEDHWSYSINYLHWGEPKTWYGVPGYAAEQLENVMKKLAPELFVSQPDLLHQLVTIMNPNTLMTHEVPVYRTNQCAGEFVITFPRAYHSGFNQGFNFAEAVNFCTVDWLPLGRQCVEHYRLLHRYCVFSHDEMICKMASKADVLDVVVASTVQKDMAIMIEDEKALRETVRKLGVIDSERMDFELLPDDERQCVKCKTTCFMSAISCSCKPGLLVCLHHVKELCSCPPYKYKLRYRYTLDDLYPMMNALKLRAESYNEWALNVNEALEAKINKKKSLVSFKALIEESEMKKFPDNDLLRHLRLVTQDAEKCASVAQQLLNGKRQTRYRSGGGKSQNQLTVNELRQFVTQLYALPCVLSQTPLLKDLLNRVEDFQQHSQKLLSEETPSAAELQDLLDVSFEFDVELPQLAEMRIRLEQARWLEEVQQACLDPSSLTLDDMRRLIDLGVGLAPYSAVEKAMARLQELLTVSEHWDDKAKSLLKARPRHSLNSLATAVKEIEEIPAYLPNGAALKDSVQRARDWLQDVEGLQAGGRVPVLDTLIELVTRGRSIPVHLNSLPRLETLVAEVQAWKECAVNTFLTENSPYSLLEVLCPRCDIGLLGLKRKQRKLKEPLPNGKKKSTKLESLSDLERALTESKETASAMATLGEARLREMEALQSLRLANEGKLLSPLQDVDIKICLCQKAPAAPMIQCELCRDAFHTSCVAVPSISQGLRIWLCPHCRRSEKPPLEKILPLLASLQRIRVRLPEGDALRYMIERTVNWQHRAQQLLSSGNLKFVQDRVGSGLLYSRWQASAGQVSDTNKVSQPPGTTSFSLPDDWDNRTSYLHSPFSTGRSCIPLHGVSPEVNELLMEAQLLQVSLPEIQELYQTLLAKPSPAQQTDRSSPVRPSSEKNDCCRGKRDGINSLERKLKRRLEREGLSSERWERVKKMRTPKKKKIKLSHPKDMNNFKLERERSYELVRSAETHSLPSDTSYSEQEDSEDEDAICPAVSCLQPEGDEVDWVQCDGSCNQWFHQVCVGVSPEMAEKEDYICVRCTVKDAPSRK

Row | Compound | pIC50
1 | CC(C)c1c(C2=CCC(O)CC2)[nH]c2ncnn2c1=O (stereo not drawn) [Example 11-36, 5-(4-hydroxycyclohex-1-en-1-yl)-6-(1-methylethyl)[1,2,4]triazolo[1,5-a]pyrimidin-7(4H)-one] | 6.86
2 | CC(C)c1c(-c2cnn(-c3ccc(F)cc3)c2)[nH]c2ncnn2c1=O [Example 11-17, 5-[1-(4-fluorophenyl)-1H-pyrazol-4-yl]-6-(1-methylethyl)[1,2,4]triazolo[1,5-a]pyrimidin-7(4H)-one] | 8.19
3 | CC(C)n1cc(-c2[nH]c3ncnn3c(=O)c2C2CCC2)cn1 [Example 8-41, 6-cyclobutyl-5-[1-(1-methylethyl)-1H-pyrazol-4-yl][1,2,4]triazolo[1,5-a]pyrimidin-7(4H)-one] | 7.48
4 | O=c1cc(-c2ccccc2F)[nH]c2ncnn12 [Example 8-28, 5-(2-fluorophenyl)[1,2,4]triazolo[1,5-a]pyrimidin-7(4H)-one] | 5.26
5 | CC(C)Cn1cc(-c2[nH]c3ncnn3c(=O)c2C(C)C)cn1 [Example 11-12, 6-(1-methylethyl)-5-[1-(2-methylpropyl)-1H-pyrazol-4-yl][1,2,4]triazolo[1,5-a]pyrimidin-7(4H)-one] | 8.29
6 | Cn1cc(-c2cc(=O)n3ncnc3[nH]2)cn1 [Example 8-31, 5-(1-methyl-1H-pyrazol-4-yl)[1,2,4]triazolo[1,5-a]pyrimidin-7(4H)-one] | 5.48
7 | CC(C)c1c(C2=CCC(C#N)CC2)[nH]c2ncnn2c1=O (stereo not drawn) [Example 11-56] | 6.96
8 | CC(C)(C)c1c(-c2ccc(F)cc2)[nH]c2ncnn2c1=O [Example 11-5, 6-tert-butyl-5-(4-fluorophenyl)[1,2,4]triazolo[1,5-a]pyrimidin-7(4H)-one] | 5.27
9 | CC(C)c1c(-c2coc(-c3ccc(F)cc3)n2)[nH]c2ncnn2c1=O [Example 11-43, 5-[2-(4-fluorophenyl)-1,3-oxazol-4-yl]-6-(1-methylethyl)[1,2,4]triazolo[1,5-a]pyrimidin-7(4H)-one] | 7.62
10 | O=c1cc(C2CCOCC2)[nH]c2ncnn12 [Example 8-20, 5-(tetrahydro-2H-pyran-4-yl)[1,2,4]triazolo[1,5-a]pyrimidin-7(4H)-one] | 4.09
11 | O=c1c(F)c(C(F)(F)F)[nH]c2ncnn12 [Example 8-17, 6-fluoro-5-(trifluoromethyl)[1,2,4]triazolo[1,5-a]pyrimidin-7(4H)-one] | 4.59
12 | Cc1[nH]c2ncnn2c(=O)c1C(C)C [Example 8-12, 5-methyl-6-(1-methylethyl)[1,2,4]triazolo[1,5-a]pyrimidin-7(4H)-one] | 6.32
13 | CC(C)c1c(-c2cnn(-c3cccc(Cl)c3)c2)[nH]c2ncnn2c1=O [Example 11-51, 5-[1-(3-chlorophenyl)-1H-pyrazol-4-yl]-6-(1-methylethyl)[1,2,4]triazolo[1,5-a]pyrimidin-7(4H)-one] | 8.01
14 | CC(C)c1c(-c2cnn(CC3(F)CCCC3)c2)[nH]c2ncnn2c1=O [Example 11-13, 5-{1-[(1-fluorocyclopentyl)methyl]-1H-pyrazol-4-yl}-6-(1-methylethyl)[1,2,4]triazolo[1,5-a]pyrimidin-7(4H)-one] | 8.29
15 | CC(C)(C)n1cc(-c2[nH]c3ncnn3c(=O)c2CC(F)(F)F)cn1 [Example 8-39, 5-(1-tert-butyl-1H-pyrazol-4-yl)-6-(2,2,2-trifluoroethyl)[1,2,4]triazolo[1,5-a]pyrimidin-7(4H)-one] | 7.06

The next lines start with the values.

Row | pIC50 | Compound
16 | 6.04 | CC(C)c1c(-c2ccnc3ccccc23)[nH]c2ncnn2c1=O [Example 11-75, 6-(1-methylethyl)-5-quinolin-4-yl[1,2,4]triazolo[1,5-a]pyrimidin-7(4H)-one]
17 | 7.98 | CC(C)c1c(-c2ccc(N3CCCCC3)nc2)[nH]c2ncnn2c1=O [Example 11-126, 6-(1-methylethyl)-5-(6-piperidin-1-ylpyridin-3-yl)[1,2,4]triazolo[1,5-a]pyrimidin-7(4H)-one]
18 | 8.29 | CC(C)c1c(-c2cnn(C(C)(C)CO)c2)[nH]c2ncnn2c1=O [Example 11-107, 5-[1-(2-hydroxy-1,1-dimethylethyl)-1H-pyrazol-4-yl]-6-(1-methylethyl)[1,2,4]triazolo[1,5-a]pyrimidin-7(4H)-one]
19 | 7.47 | CC(C)c1c(-c2ccc3c(c2)OCCN3C)[nH]c2ncnn2c1=O [Example 11-105, 5-(4-methyl-3,4-dihydro-2H-1,4-benzoxazin-7-yl)-6-(1-methylethyl)[1,2,4]triazolo[1,5-a]pyrimidin-7(4H)-one]
20 | 6.20 | CC(C)c1c(-c2ccnn2Cc2ccccc2)[nH]c2ncnn2c1=O [Example 11-91, 5-(1-benzyl-1H-pyrazol-5-yl)-6-(1-methylethyl)[1,2,4]triazolo[1,5-a]pyrimidin-7(4H)-one]
21 | 7.31 | CC(C)c1c(-c2ccc(C#N)nc2)[nH]c2ncnn2c1=O [Example 11-131, 5-[6-(1-methylethyl)-7-oxo-4,7-dihydro[1,2,4]triazolo[1,5-a]pyrimidin-5-yl]pyridine-2-carbonitrile]
22 | 7.91 | CC(C)c1c(-c2ccc(-n3cccn3)nc2)[nH]c2ncnn2c1=O [Example 11-128, 6-(1-methylethyl)-5-[6-(1H-pyrazol-1-yl)pyridin-3-yl][1,2,4]triazolo[1,5-a]pyrimidin-7(4H)-one]
23 | 6.38 | CC(C)c1c(-c2cccs2)[nH]c2ncnn2c1=O [Example 11-147, 6-(1-methylethyl)-5-thiophen-2-yl[1,2,4]triazolo[1,5-a]pyrimidin-7(4H)-one]
24 | 6.71 | CC(C)c1c(-c2cnco2)[nH]c2ncnn2c1=O [Example 11-139, 6-(1-methylethyl)-5-(1,3-oxazol-5-yl)[1,2,4]triazolo[1,5-a]pyrimidin-7(4H)-one]
25 | 8.12 | CC(C)c1c(-c2ccc3c(c2)CCC(=O)N3)[nH]c2ncnn2c1=O [Example 11-101, 6-[6-(1-methylethyl)-7-oxo-4,7-dihydro[1,2,4]triazolo[1,5-a]pyrimidin-5-yl]-3,4-dihydroquinolin-2(1H)-one]
26 | 7.81 | CC(C)c1c(-c2ccc(N3CCN(C(C)C)CC3)cc2)[nH]c2ncnn2c1=O [Example 11-93, 6-(1-methylethyl)-5-{4-[4-(1-methylethyl)piperazin-1-yl]phenyl}[1,2,4]triazolo[1,5-a]pyrimidin-7(4H)-one]
27 | 7.74 | CC(C)c1c(-c2ccc(CC#N)cc2)[nH]c2ncnn2c1=O [Example 11-67, {4-[6-(1-methylethyl)-7-oxo-4,7-dihydro[1,2,4]triazolo[1,5-a]pyrimidin-5-yl]phenyl}acetonitrile]
28 | 8.07 | CC(C)c1c(-c2ccc(-n3ccnn3)cc2)[nH]c2ncnn2c1=O [Example 11-95, 6-(1-methylethyl)-5-[4-(1H-1,2,3-triazol-1-yl)phenyl][1,2,4]triazolo[1,5-a]pyrimidin-7(4H)-one]
29 | 7.47 | COC(=O)c1cccc(-c2[nH]c3ncnn3c(=O)c2C(C)C)c1 [Example 11-80, methyl 3-[6-(1-methylethyl)-7-oxo-4,7-dihydro[1,2,4]triazolo[1,5-a]pyrimidin-5-yl]benzoate]
30 | 6.95 | CC(C)c1c(-c2cc(C3CCC3)cs2)[nH]c2ncnn2c1=O [Example 11-142, 5-(4-cyclobutylthiophen-2-yl)-6-(1-methylethyl)[1,2,4]triazolo[1,5-a]pyrimidin-7(4H)-one]
